Five molecules from ChEMBL document CHEMBL4411299, “A class of novel tubulin polymerization inhibitors exert effective anti-tumor activity via mitotic catastrophe” (Eur J Med Chem, 2019) can be followed below.

Assay [1] concerns HeLa. The assay is described as follows: Cell cycle arrest in human HeLa cells assessed as accumulation of cells at G2/M phase at 0.1 to 2 uM after 6 to 24 hrs by propidium iodide staining-based flow cytometric analysis. Format: functional. A general note: In flow cytometry, cells or beads pass a laser one at a time.
The subject of assay [2] is HeLa. Briefly: Induction of apoptosis in human HeLa cells assessed as late apoptotic cells at 0.4 uM after 24 hrs by Annexin V-FITC/propidium iodide staining-based flow cytometric analysis (reference value: 3.51%). Format: functional.
The subject of assay [3] is A2780. The assay is described as follows: Antiproliferative activity against human A2780 cells after 48 hrs by MTT assay. Format: functional. The note with it: A2780, 48 h.
The subject of assay [4] is HT-29. Briefly: Antiproliferative activity against human HT-29 cells after 48 hrs by MTT assay. Type of assay: functional. The following applies: HT-29, 48 h.
Assay [5] concerns HeLa. Briefly: Induction of apoptosis in human HeLa cells assessed as early apoptotic cells at 0.4 uM after 24 hrs by Annexin V-FITC/propidium iodide staining-based flow cytometric analysis (reference value: 3.65%). Format: functional.
Assay [6] concerns HeLa. The assay is described as follows: Induction of apoptosis in human HeLa cells assessed as necrotic cells at 0.4 uM after 24 hrs by Annexin V-FITC/propidium iodide staining-based flow cytometric analysis (reference value: 0.05%). Format: functional.
Assay [7] relates to HeLa. Briefly: Inhibition of colony formation in human HeLa cells after 2 weeks by crystal violet staining-based assay. Format: functional, cell-based.
In assay [8] the test system is A549. Briefly: Antiproliferative activity against human A549 cells after 48 hrs by MTT assay. The following applies: A549, 48 h. Type of assay: functional. On the technique in general: Formazan colour is commonly taken as a measure of viable cells.
The test system of assay [9] is HeLa. The assay is described as follows: Antiproliferative activity against human HeLa cells after 48 hrs by MTT assay. Type of assay: functional.
Assay [10] concerns HeLa. The assay is described as follows: Induction of apoptosis in human HeLa cells assessed as viable cells at 0.4 uM after 24 hrs by Annexin V-FITC/propidium iodide staining-based flow cytometric analysis (reference value: 92.8%). Type of assay: functional. The note with it: read-out: Activity.
Assay [11] relates to HeLa. Briefly: Induction of apoptosis in human HeLa cells assessed as necrotic cells at 0.2 uM after 24 hrs by Annexin V-FITC/propidium iodide staining-based flow cytometric analysis (reference value: 0.05%). Type of assay: functional.
The test system of assay [12] is HeLa. Briefly: Induction of apoptosis in human HeLa cells assessed as early apoptotic cells at 0.2 uM after 24 hrs by Annexin V-FITC/propidium iodide staining-based flow cytometric analysis (reference value: 3.65%). Format: functional.
Assay [13] concerns MDA-MB-231. Briefly: Antiproliferative activity against human MDA-MB-231 cells after 48 hrs by MTT assay. The following applies: MDA-MB-231, 48 h. Format: functional.
Assay [14] concerns HeLa. Briefly: Induction of apoptosis in human HeLa cells assessed as viable cells at 0.2 uM after 24 hrs by Annexin V-FITC/propidium iodide staining-based flow cytometric analysis (reference value: 92.8%). The note with it: read-out: Activity. Type of assay: functional.
In assay [15] the test system is HepG2. Briefly: Antiproliferative activity against human HepG2 cells after 48 hrs by MTT assay. Format: functional. The note with it: HepG2, 48 h.
Assay [16] concerns HeLa. Briefly: Induction of apoptosis in human HeLa cells assessed as late apoptotic cells at 0.2 uM after 24 hrs by Annexin V-FITC/propidium iodide staining-based flow cytometric analysis (reference value: 3.51%). Type of assay: functional.
The target of assay [17] is T1, Tubulin (Homo sapiens) (UniProt P68371+Q9H4B7+P0DPH7+P68366+Q13509+Q71U36+P04350+Q3ZCM7+P07437+P68363+Q9BQE3+Q6PEY2+Q13885+Q9BVA1+Q9BUF5). Briefly: Induction of tubulin polymerization in human HeLa cells assessed as induction of long thick microtubule bundles at 0.05 after 12 hrs by DAPI staining-based confocal fluorescence microscopic analysis. Format: cell-based.

Assay [18] has as its target T1, Tubulin (Homo sapiens). Briefly: Induction of tubulin polymerization in human HeLa cells assessed as increase in density of microtubule polymerization at 0.05 after 12 hrs by DAPI staining-based confocal fluorescence microscopic analysis. Format: cell-based.
Assay [19] has as its system HeLa. The assay is described as follows: Induction of apoptosis in human HeLa cells assessed as viable cells at 0.05 uM after 24 hrs by Annexin V-FITC/propidium iodide staining-based flow cytometric analysis (reference value: 92.8%). Type of assay: functional. The note with it: read-out: Activity.
Assay [20] relates to HeLa. Briefly: Induction of apoptosis in human HeLa cells assessed as early apoptotic cells at 0.05 uM after 24 hrs by Annexin V-FITC/propidium iodide staining-based flow cytometric analysis (reference value: 3.65%). Type of assay: functional.
Assay [21] concerns HeLa. The assay is described as follows: Induction of apoptosis in human HeLa cells assessed as late apoptotic cells at 0.05 uM after 24 hrs by Annexin V-FITC/propidium iodide staining-based flow cytometric analysis (reference value: 3.51%). Format: functional.
The test system of assay [22] is HeLa. Briefly: Induction of apoptosis in human HeLa cells assessed as necrotic cells at 0.05 uM after 24 hrs by Annexin V-FITC/propidium iodide staining-based flow cytometric analysis (reference value: 0.05%). Type of assay: functional.
Assay [23] has as its system HeLa. The assay is described as follows: Antitumor activity against human HeLa cells xenografted in nude mouse assessed as tumor weight at 10 mg/kg, iv administered every other day up to 20 days (reference value: 1.014 +/- 0.116g). Type of assay: functional. Background: Xenograft models place foreign cells or tissue in a host animal.
Assay [24] deals with HeLa. The assay is described as follows: Antitumor activity against human HeLa cells xenografted in nude mouse assessed as tumor growth inhibition at 10 mg/kg, iv administered every other day up to 20 days relative to control. Type of assay: functional. The following applies: 480 h, read-out: TGI.

The source made the active and inactive calls. The calls are words filed in the database; no cut-off is given here.

By GI50 is commonly meant the concentration that inhibits growth by half. A high value points to less potent growth inhibition. In the case of `COC(=O)N1N=C(c2cccc(Cl)c2)CC1c1cc(OC)c(OC)c(OC)c1` (configuration not stated), the result in assay [1] was Active. Also, the Activity in assay [2] was 3.13%; in assay [5], 3.26%; in [6], 0.511%; in assay [11], 0.481%; in assay [12], 3.3%; in [16] it was 3.19%. Besides, the GI50 is 1540 nM in assay [3]; 140 nM in assay [4]; 340 nM in [8]; 160 nM in [9]; 110 nM in assay [13]; 1240 nM in assay [15]. The inhibition result in assay [7] was “Dose-dependent effect”. Further, the viability at 0.4 µM in assay [10] was found to be 93.1%. Besides, the viability at 0.2 µM in [14] was 93%.

Turning to `CC(=O)O[C@H]1C(=O)[C@@]2(C)[C@H]([C@H](OC(=O)c3ccccc3)[C@]3(O)C[C@H](OC(=O)[C@H](O)[C@@H](NC(=O)c4ccccc4)c4ccccc4)C(C)=C1C3(C)C)[C@]1(OC(C)=O)CO[C@@H]1C[C@@H]2O`, the outcome in assay [17] and in assay [18] was Active.

For the molecule `COc1ccc(/C=C\c2cc(OC)c(OC)c(OC)c2)cc1OP(=O)([O-])[O-].[Na+].[Na+]` [FOSBRETABULIN DISODIUM], the viability at 0.05 µM in assay [19] amounted to 75.4%. The GI50 in [3] stood at 320 nM; in [4] it was 62 nM; in [8], 160 nM; in assay [9], 19 nM; in [13], 65 nM; in assay [15], 190 nM. Also, the Activity is reported as 18.9% in [20], 5.08% in [21], 0.6% in [22] and 0.187 g in assay [23]. The inhibition in vivo at 10 mg/kg in [24] was 79.4%.

On to `CCOc1cccc(C2=NN(C(=O)OC)C(c3cc(OC)c(OC)c(OC)c3)C2)c1` (configuration not stated), for which the GI50 stood at 760 nM in [3]; 4450 nM in [4]; 5290 nM in assay [8]; 4970 nM in assay [9]; 190 nM in assay [13]; 8360 nM in assay [15].

For `CCOC(=O)N1N=C(c2ccccc2)CC1c1cc(OC)c(OC)c(OC)c1` (configuration not stated), the GI50 amounted to 6720 nM in assay [3]; 8920 nM in assay [4]; 6680 nM in [8]; 8230 nM in assay [9]; 5610 nM in assay [13]; 5950 nM in assay [15].
